Experimental data as given in ChEMBL document CHEMBL1201862, “PubChem BioAssay data set” (2004).
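Following 48 hours of exposure in 96-well plates, responses at five concentrations were used to interpolate endpoints linearly. At the GI50, growth is halved.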 The source made the active and inactive calls. Cut-off read from the data, not from the text of the source: active = GI50 up to about 1.1 µM and inactive = higher.

Tests used:
Experiment in all cases: growth of human tumour cells (NCI), 48 h
A549 = test system: A549
ACHN = test system: ACHN
BT-549 = test system: BT-549
CAKI-1 = test system: CAKI-1
DU-145 = test system: DU-145
HCC 2998 = test system: HCC 2998
HOP-62 = test system: HOP-62
Hs-578T = test system: Hs-578T
IGROV-1 = test system: IGROV-1
KM12 = test system: KM12
MDA-MB-231 = test system: MDA-MB-231
MDA-N = test system: MDA-N
PC-3 = test system: PC-3
SF-268 = test system: SF-268
SF-539 = test system: SF-539
SK-MEL-5 = test system: SK-MEL-5
SN12C = test system: SN12C
UACC-62 = test system: UACC-62
UO-31 = test system: UO-31

SMILES | GI50 (A549) | GI50 (ACHN) | GI50 (BT-549) | GI50 (CAKI-1) | GI50 (DU-145) | GI50 (HCC 2998) | GI50 (HOP-62) | GI50 (Hs-578T) | GI50 (IGROV-1) | GI50 (KM12) | GI50 (MDA-MB-231) | GI50 (MDA-N) | GI50 (PC-3) | GI50 (SF-268) | GI50 (SF-539) | GI50 (SK-MEL-5) | GI50 (SN12C) | GI50 (UACC-62) | GI50 (UO-31)
CN(C)CCNC(=O)c1cc([N+](=O)[O-])cn1C | > 100 µM (inactive) | > 100 µM (inactive) | > 100 µM (inactive) | > 100 µM (inactive) | > 100 µM (inactive) | > 100 µM (inactive) | > 100 µM (inactive) | > 100 µM (inactive) | > 100 µM (inactive) | > 100 µM (inactive) | > 100 µM (inactive) | > 100 µM (inactive) | > 100 µM (inactive) | > 100 µM (inactive) | > 100 µM (inactive) | > 100 µM (inactive) | > 100 µM (inactive) | > 100 µM (inactive) | > 100 µM (inactive)
COc1ccc(/C=C/C(=O)c2cccc(C(=O)/C=C/c3ccc(OC)c(OC)c3)n2)cc1OC | > 100 µM (inactive) | 25.8 µM (inactive) | 6.15 µM (inactive) | > 57.9 µM (inactive) | > 100 µM (inactive) | > 100 µM (inactive) | > 89.7 µM (inactive) | > 48.2 µM (inactive) | 25.9 µM (inactive) | > 55.6 µM (inactive) | 25.4 µM (inactive) | 15.7 µM (inactive) | 29 µM (inactive) | 36.9 µM (inactive) | 14.4 µM (inactive) | 98.4 µM (inactive) | 15.5 µM (inactive) | 21.7 µM (inactive) | 16.4 µM (inactive)
Cc1cc(NS(=O)(=O)c2ccc(NC(=O)c3ccc4nc5ccccc5c(Nc5ccc(S(=O)(=O)Nc6cc(C)on6)cc5)c4c3)cc2)no1 | > 50 µM (inactive) | > 50 µM (inactive) | > 50 µM (inactive) | > 50 µM (inactive) | > 50 µM (inactive) | > 50 µM (inactive) | > 50 µM (inactive) | > 50 µM (inactive) | > 50 µM (inactive) | > 50 µM (inactive) | > 50 µM (inactive) | > 50 µM (inactive) | > 50 µM (inactive) | > 50 µM (inactive) | > 50 µM (inactive) | > 50 µM (inactive) | > 50 µM (inactive) | > 50 µM (inactive) | > 50 µM (inactive)
O=S(=O)(c1cnccc1N1CCN(CCO)CC1)N1CCCC1 | > 100 µM (inactive) | > 100 µM (inactive) | > 100 µM (inactive) | > 100 µM (inactive) | > 100 µM (inactive) | > 100 µM (inactive) | > 100 µM (inactive) | > 100 µM (inactive) | > 100 µM (inactive) | > 100 µM (inactive) | > 100 µM (inactive) | > 100 µM (inactive) | > 100 µM (inactive) | > 100 µM (inactive) | > 100 µM (inactive) | > 100 µM (inactive) | > 100 µM (inactive) | > 100 µM (inactive) | > 100 µM (inactive)
O=C1CSC2(CC(/C=C/c3cccc(Br)c3)=NN2c2cccc(S(=O)(=O)O)c2)N1c1nc2ccccc2s1 (centres undefined) | > 100 µM (inactive) | > 100 µM (inactive) | > 100 µM (inactive) | > 100 µM (inactive) | > 100 µM (inactive) | > 100 µM (inactive) | > 100 µM (inactive) | > 100 µM (inactive) | 58.6 µM (inactive) | > 90.8 µM (inactive) | > 100 µM (inactive) | > 100 µM (inactive) | > 100 µM (inactive) | > 100 µM (inactive) | > 100 µM (inactive) | > 100 µM (inactive) | > 100 µM (inactive) | 80.2 µM (inactive) | > 96.6 µM (inactive)
O=C1CSC(c2cc3cc(Br)ccc3nc2Cl)N1c1ccc(F)c(Cl)c1 (centres undefined) | > 50 µM (inactive) | > 50 µM (inactive) | > 50 µM (inactive) | > 50 µM (inactive) | > 50 µM (inactive) | > 50 µM (inactive) | > 50 µM (inactive) | > 50 µM (inactive) | 18.6 µM (inactive) | 35.6 µM (inactive) | > 50 µM (inactive) | 48.3 µM (inactive) | 29.9 µM (inactive) | 29.5 µM (inactive) | 17.3 µM (inactive) | > 50 µM (inactive) | > 50 µM (inactive) | > 50 µM (inactive) | > 50 µM (inactive)
CC(C)/C(Cl)=N/OC(=O)Nc1ccc(F)c(Cl)c1 | 18.1 µM (inactive) | 1.88 µM (inactive) | 5.06 µM (inactive) | 1.68 µM (inactive) | 16.2 µM (inactive) | 14.6 µM (inactive) | 17.6 µM (inactive) | 21.6 µM (inactive) | 12.9 µM (inactive) | 16.6 µM (inactive) | 16.2 µM (inactive) | 3.92 µM (inactive) | 16.1 µM (inactive) | 19.4 µM (inactive) | 6.43 µM (inactive) | 13.1 µM (inactive) | 1.76 µM (inactive) | 14.2 µM (inactive) | 16.7 µM (inactive)
Clc1ccc(OCc2nnc(CCCCCCCCc3nnc(COc4ccc(Cl)cc4)n3Nc3ccccc3)n2Nc2ccccc2)cc1 | 1.19 µM (inactive) | 1.16 µM (inactive) | 11.6 µM (inactive) | 0.531 µM (active) | 19.1 µM (inactive) | 12.2 µM (inactive) | 1.08 µM (active) | 22.9 µM (inactive) | 7.23 µM (inactive) | 11.2 µM (inactive) | 26.2 µM (inactive) | 1.6 µM (inactive) | 1.44 µM (inactive) | 12.8 µM (inactive) | 0.962 µM (active) | 0.463 µM (active) | 18.2 µM (inactive) | 0.895 µM (active) | 2.04 µM (inactive)
COC(=O)c1c(C)cccc1/C=C1\Cc2cc(C)cc(C)c2C1=O | 76.4 µM (inactive) | 27.9 µM (inactive) | > 100 µM (inactive) | > 100 µM (inactive) | > 100 µM (inactive) | 82.2 µM (inactive) | 12 µM (inactive) | 18.1 µM (inactive) | 65.8 µM (inactive) | > 100 µM (inactive) | > 100 µM (inactive) | > 100 µM (inactive) | > 100 µM (inactive) | 30.8 µM (inactive) | 35.1 µM (inactive) | 32.3 µM (inactive) | > 100 µM (inactive) | 10 µM (inactive) | > 100 µM (inactive)
c1csc(-c2cc(-c3ccsc3)c(-c3cccs3)s2)c1 | 92.7 µM (inactive) | 99.5 µM (inactive) | 46.2 µM (inactive) | > 100 µM (inactive) | > 100 µM (inactive) | 55.8 µM (inactive) | > 100 µM (inactive) | > 100 µM (inactive) | – | 31.8 µM (inactive) | 29.8 µM (inactive) | 32 µM (inactive) | > 100 µM (inactive) | > 100 µM (inactive) | > 100 µM (inactive) | 53.6 µM (inactive) | > 100 µM (inactive) | 48.4 µM (inactive) | 76.2 µM (inactive)
